Experimental data published in ChEMBL document CHEMBL1177845, “Efficient synthesis and identification of novel propane-1,3-diamino bridged CCR5 antagonists with variation on the basic center carrier” (Eur J Med Chem, 2010).

Columns and labels:
[1] = biological target: T1, C-C chemokine receptor type 5 (Homo sapiens, UniProt P51681); experiment: Antagonist activity at CCR5 expressed in CHO cells assessed as inhibition of RANTES-stimulated GTPgammaS binding by scintillation proximity assay; format: functional, cell-based
Target sequence in this assay (P51681 whole entry): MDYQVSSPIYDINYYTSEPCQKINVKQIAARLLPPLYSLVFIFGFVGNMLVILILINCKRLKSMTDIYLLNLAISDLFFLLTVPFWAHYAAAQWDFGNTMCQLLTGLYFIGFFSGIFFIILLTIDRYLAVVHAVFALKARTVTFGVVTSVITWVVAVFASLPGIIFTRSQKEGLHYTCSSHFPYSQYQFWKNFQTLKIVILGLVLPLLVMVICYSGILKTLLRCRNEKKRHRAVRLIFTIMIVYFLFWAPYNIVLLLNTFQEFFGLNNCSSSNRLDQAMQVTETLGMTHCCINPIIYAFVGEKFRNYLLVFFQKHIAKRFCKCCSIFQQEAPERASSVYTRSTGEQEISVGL

[2] = biological target: T1, C-C chemokine receptor type 5; experiment: Antagonist activity at CCR5 expressed in CHO cells assessed as inhibition of RANTES-stimulated GTPgammaS binding at 300 nM by scintillation proximity assay
Target sequence in this assay (P51681 whole entry, looked up): as the sequence (P51681 whole entry) above

[3] = biological target: T1, C-C chemokine receptor type 5; experiment: Antagonist activity at CCR5 expressed in CHO cells assessed as inhibition of RANTES-stimulated GTPgammaS binding at 30 nM by scintillation proximity assay
Target sequence in this assay (P51681 whole entry, looked up): as the sequence (P51681 whole entry) above

Row | Structure (SMILES) | IC50 [1] | inhibition [2] | inhibition [3]
1 | Cc1nnc(C(C)C)n1[C@H]1C[C@H]2CC[C@@H](C1)N2CC[C@H](NC(=O)COc1ccccc1)c1ccc(C(F)(F)F)cc1 | 0.253 µM | – | –
2 | CC1(NC(=O)C2CCCCC2)CCN(CC[C@H](NC(=O)C2CCCCC2)c2cccc(F)c2)CC1 | – | 29% | 6%
3 | COC(=O)C1(Cc2ccccc2)CCN(CC[C@H](NC(=O)C2CCC2)c2cccc3ccccc23)CC1 | > 10 µM | – | –
4 | COC(=O)C1(Cc2ccccc2)CCN(CC[C@H](NC(=O)C2CCC2)c2ccc(C(F)(F)F)cc2)CC1 | 10 µM | – | –
5 | O=C(N[C@@H](CCN1CCC(CO)(Cc2ccccc2)CC1)c1ccc(C(F)(F)F)cc1)C1CCC1 | > 10 µM | – | –
6 | CC(C)N(Cc1ccccc1)c1ccc(N2CCN(CC[C@H](NC(=O)C3CCCCC3)c3ccc(C(F)(F)F)cc3)CC2)cc1 | > 10 µM | – | –
7 | CC1(NC(=O)CC23CC4CC(CC(C4)C2)C3)CCN(CC[C@H](NC(=O)C2CCCCC2)c2cccc(F)c2)CC1 | – | 46% | 21%
8 | CC(=O)N(c1ccc(N2CCN(CC[C@H](NC(=O)C3CCCCC3)c3ccc(C(F)(F)F)cc3)CC2)cc1)C(C)C | > 10 µM | – | –
9 | Cc1nc2cccnc2n1[C@H]1C[C@H]2CC[C@@H](C1)N2CC[C@H](NC(=O)c1ccc(F)cc1)c1cccc2ccccc12 | 10 µM | – | –

Second part, the molecule after the results:

Row | IC50 [1] | inhibition [2] | inhibition [3] | Structure (SMILES)
10 | – | 95% | 31% | CC1(NC(=O)Cc2ccc(F)cc2)CCN(CC[C@H](NC(=O)C2CCCCC2)c2cccc(F)c2)CC1
11 | – | 7% | 3% | CC1(NC(=O)c2ccc(C(F)(F)F)cc2)CCN(CC[C@H](NC(=O)C2CCCCC2)c2cccc(F)c2)CC1
12 | – | 44% | 35% | CC1(NC(=O)c2cccnc2)CCN(CC[C@H](NC(=O)C2CCCCC2)c2cccc(F)c2)CC1
13 | – | 33% | 9% | COc1ccc(C(=O)NC2(C)CCN(CC[C@H](NC(=O)C3CCCCC3)c3cccc(F)c3)CC2)cc1
14 | – | 91% | 28% | CC1(NC(=O)Cc2ccc(Cl)cc2)CCN(CC[C@H](NC(=O)C2CCCCC2)c2cccc(F)c2)CC1
15 | – | 97% | 36% | CC1(NC(=O)Cc2ccc(Cl)c(Cl)c2)CCN(CC[C@H](NC(=O)C2CCCCC2)c2cccc(F)c2)CC1
